In patent US10828306B2, “Methotrexate for proliferative vitreoretinopathy” (Massachusetts Eye and Ear Infirmary, priority 2014, dated 2020):
“And” between values parts separate entries of the source, which are not always exact repeats. Identical values can stand only once. “Also recorded” adds a separate entry of the source.

How the values were obtained:
[1] = tested on: patients, eyes with a wide variety of conditions including PVR; conditions: intravitreal, varying doses, cited from earlier work
[2] = tested on: human proliferative vitreoretinopathy (PVR) cells; assay: Growth of human PVR cells in culture; type: cell-based; conditions: for Growth of PVR cells versus control: methotrexate 400, 200, 100 (micrograms, μM), 30,000 cells per well
Experimental: The cells were treated with 100 μM, 200 μM, or 400 μM Methotrexate (MTX) as indicated, and the images were taken after 72 hours (2A), 1 week (2B) or 2 weeks (2C).
We hypothesized that methotrexate would inhibit human proliferative vitreoretinopathy (PVR) cells in culture. PVR membranectomy was performed in patients undergoing retinal detachment repair secondary to PVR. Using cellular separation techniques, cellular constituents of the PVR membranes were separated from the extracellular matrix membranes. 30,000 cells per well were placed into a standard 12 welled plate. All 12 wells received endothelial cell growth medium with supplemental growth factors. Four arms were designated consisting of three wells each. The first arm served as a control receiving the standard growth medium but no other intervention. The remaining wells were designated as treatment arms. The second arm of three wells served as the first treatment arm and exposed the cells to 400 micrograms of methotrexate. The third and fourth arms of three wells each exposed the cultured cells to 200 and 100 micrograms, respectively, of methotrexate.

[3] = tested on: patients with retinal detachment at high risk for proliferative vitreoretinopathy (PVR); assay: Pilot study of multiple intravitreal methotrexate injections after PPV in eyes at high risk for PVR; type: in vivo, human; design: IOP at last follow up / Final IOP: unit not given here
From the text: We hypothesized that the administration of multiple, intravitreal methotrexate injections into eyes with high-risk features for post-operative proliferative vitreoretinopathy (PVR) development will have improved visual outcomes, higher anatomic final reattachment rates, decreased reoperation rates, and decreased occurrence of PVR at 4 months postoperatively.
We have performed a small pilot study in 10 patients with retinal detachment whom had high-risk clinical factors for developing PVR.
Patients 18 years to 89 years old of both genders were eligible for this study if they required pars plana vitrectomy (PPV) for rhegmatagenous retinal detachment secondary to trauma, PPV for preexisting proliferative vitreoretinopathy grade C or higher, or if they had retinal detachments requiring PPV for other indications associated with high risk condition for PVR development, i.e.: giant retinal tears (Giant retinal tears are defined as tears involving 90° or more of the circumference of the globe), retinal breaks larger than 3 disc areas, long-standing retinal detachments, detachments associated with hemorrhage.
The PPV was performed under local or general anesthesia using three, 23 or 20 gauge sclerotomy ports. Any present epiretinal membranes were dissected using a membrane pick and/or forceps. Intraoperative tissue staining, perfluorocarbons, cryopexy, endolaser, scleral buckling, and lensectomy were performed as needed. Either silicone oil or gas was used as the tamponading agent.
Routine post-operative visits, which involve a dilated funduscopic examination, occurred on post-operative day 1, 7, month 1, month 2, and month 3.
In addition to receiving the above-described standard of care, patients received multiple intravitreal methotrexate injections during their post-operative period. The first injection was administered intraoperatively and subsequently was injected on post-op week 1,2,3,4,5,6,7,8 and on post-op month 3, for a total of 10 injections. Intravitreal methotrexate injections were performed aseptically after the topical application of anaesthesia and 5% povidone iodine to the conjunctival sac. Each patient received an intravitreal injection of 400 mcg/0.1 ml methotrexate, 3.0 to 3.5 mm posterior to the limbus, depending on lens status, with a 30-gauge needle.
After injection, patients were monitored for adverse events, including a full-dilated funduscopic examination.

[4] = one patient (studyid), follow up 4 to 39 months
[5] = one patient (studyid), intravitreal methotrexate 400 mcg/0.1 ml

Question: For `CN(Cc1cnc2nc(N)nc(N)c2n1)c1ccc(C(=O)N[C@@H](CCC(=O)O)C(=O)O)cc1` [methotrexate, N-[4-[[(2,4-diamino-6-pteridinyl)methyl]methylamino]benzoyl]-L-glutamic acid], which “Change in visual acuity for the group” value ([1]; 5 patients) is on record?
Answer: The value was “no change in visual acuity”.

Question: And the “Number of patients with any improved vision” value ([1]; of 5 patients)?
Answer: Its value is “one”.

Question: What about the “Proliferation of human PVR cells in culture” value ([2]; 100 μM, 200 μM, or 400 μM) of the same compound?
Answer: Its value is “inhibited proliferation”.

Question: What about the “Growth of PVR cells versus control” value ([2]; 1 week) of the same compound?
Answer: The value was “growth inhibition and lack of confluency”.

Question: What about the “Growth of PVR cells versus control” value ([2]; 2 weeks) of the same compound?
Answer: Its value is “inhibited growth and lack of confluency; also recorded: inhibition of cellular confluency continued”.

Question: What about the “Other subjects with reaccumulation of fluid under the retina requiring re-operation, no membranes” value ([3]; 10 patients) of the same compound?
Answer: Its value is “Two”.

Question: And the “Development of PVR while receiving methotrexate” value ([3]; 10 patients, three-month treatment protocol)?
Answer: The value was “no subjects developed PVR”.

Question: What about the “Subjects with a degree of conjunctival hyperemia” value ([3]; 10 patients, consistent with the use of silicone oil) of the same compound?
Answer: The value was “All subjects”.

Question: And the “Median post-operative visual acuity” value ([3]; 10 patients, median pre-operative visual acuity Hand Motions at 2 feet)?
Answer: The value was 20/200.

Question: What about the “Visual acuity and intraocular pressure at last follow up visit compared with post-operative month 4” value ([3]; all patients) of the same compound?
Answer: The value was “similar”.

Question: And the Significant adverse events ([3]; follow up 4 to 39 months, median 25 months)?
Answer: Its Significant adverse events is “no significant adverse events were observed”.

Question: And the “Adverse events observed: Conjunctival hyperemia” value ([3]; one patient (studyid))?
Answer: Its value is 4 (2×) and 7 (3×) and 5 (3×) and 6 (2×).

Question: What about the “Adverse events observed: Elevated intraocular pressure” value ([3]; one patient (studyid)) of the same compound?
Answer: Its value is 0 (9×) and 1.

Question: And the “Adverse events observed: NLP” value ([3]; one patient (studyid))?
Answer: The value was 0 (9×) and 1.

Question: And the “Adverse events observed: Superficial Punctate Keratopathy” value ([3]; one patient (studyid))?
Answer: The value was 0 (9×) and 1.

Question: And the Reoperations required ([3]; one patient (studyid))?
Answer: The Reoperations required was 1 (2×) and 0 (8×).

Question: What about the “IOP at last follow up” value [3, 4] of the same compound?
Answer: The value was 16 (2×) and 9 (3×) and 22 and 14 (2×) and 12 and 15.

Question: What about the “Visual acuity at last follow up” value [3, 4] of the same compound?
Answer: Its value is 20/300 and 20/200 and NLP and 20/70 and 20/150 and 20/500.

Question: And the “Detachments: Number of detachments due to PVR during study period” value [3, 5]?
Answer: Its value is 0 (9×) and 0*.

Question: What about the “Final IOP” value [3, 5] of the same compound?
Answer: The value was 12 (3×) and 9 (2×) and 10 and 8 and 15 and 13 (2×).

Question: What about the “Visual Acuity, Post-op month 4” value ([3]; one patient (studyid), intravitreal methotrexate 400 mcg/0.1 ml, up to 10 injections over 3 months) of the same compound?
Answer: The value was 20/200 (4×) and 20/160 and 20/252 and NLP and 20/65 and 20/320.

Question: And the “Elevated intraocular pressure by Goldmann Tonometry” value ([3]; one patient, single examination, attributed to excessive steroid use)?
Answer: Its value is 44 mm Hg.

Question: And the “Patients with superficial punctuate keratopathy (SPK)” value ([3]; single clinical exam, normal corneal surface one week later)?
Answer: The value was “one”.

Question: And the “PVR after completion of the injection protocol” value ([3]; trauma patient #4, at 3½ months postoperatively)?
Answer: The value was “massive PVR two weeks after completion of the injection protocol”.
